This note sets out measurements from patent publication US20250368649A1, “TETRAHYDROPYRIDOPYRIMIDINE PAN-KRAS INHIBITORS” (Mirati Therapeutics, Inc., priority 2022, published 2025).

Test [1] concerns the target KRas G12D (Homo sapiens, UniProt P01116, G12D). Description: biochemical. Conditions: Binding to KRas (IC50 nM) G12D, TR-FRET displacement, KRas G12D. (In general: Time-resolved FRET reads energy transfer from a long-lived donor to a nearby acceptor.)
In test [2] the target is KRas G13D (Homo sapiens, UniProt P01116, G13D). In kind it is binding. The conditions noted are these: TR-FRET displacement, read-out: Binding to KRas (IC50 nM) G13D.
Test [3] deals with KRas Q61H (Homo sapiens, UniProt P01116, Q61H). Description: KRas binding assay (TR-FRET displacement), KRas Q61H. The conditions noted are these: TR-FRET displacement.
Test [4] deals with KRas G12C (Homo sapiens, UniProt P01116, G12C). The format is binding. Conditions: TR-FRET displacement, read-out: Binding to KRas (IC50 nM) G12C.
For test [5], the target named is KRas G12V (Homo sapiens, UniProt P01116, G12V). The test is described as follows: biochemical. Conditions: Binding to KRas (IC50 nM) G12V, TR-FRET displacement, KRas G12V.
Test [6] deals with KRas G12A (Homo sapiens, UniProt P01116, G12A). The format is binding. The conditions noted are these: TR-FRET displacement, read-out: Binding to KRas (IC50 nM) G12A.
Test [7] concerns the target KRas WT (Homo sapiens, UniProt P01116). Description: KRas binding assay (TR-FRET displacement), KRas WT. The conditions noted are these: TR-FRET displacement.
In test [8] the target is KRas G12S (Homo sapiens, UniProt P01116, G12S). The format is binding. The conditions noted are these: TR-FRET displacement, read-out: Binding to KRas (IC50 nM) G12S.
Sequence of KRas G12S (P01116 1-169 isoform P01116-2 G12S): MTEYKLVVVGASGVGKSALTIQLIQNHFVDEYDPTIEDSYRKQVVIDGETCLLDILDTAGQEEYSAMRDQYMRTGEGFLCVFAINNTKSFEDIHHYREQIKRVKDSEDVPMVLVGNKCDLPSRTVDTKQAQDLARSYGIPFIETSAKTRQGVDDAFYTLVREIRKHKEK

Sequence of KRas Q61H (P01116 1-169 isoform P01116-2 Q61H): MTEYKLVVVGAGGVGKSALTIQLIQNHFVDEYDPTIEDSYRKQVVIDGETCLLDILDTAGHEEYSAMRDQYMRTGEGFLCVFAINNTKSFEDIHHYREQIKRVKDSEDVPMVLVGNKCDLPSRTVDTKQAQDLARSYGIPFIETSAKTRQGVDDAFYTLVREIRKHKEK
Sequence of KRas WT (P01116 1-169 isoform P01116-2): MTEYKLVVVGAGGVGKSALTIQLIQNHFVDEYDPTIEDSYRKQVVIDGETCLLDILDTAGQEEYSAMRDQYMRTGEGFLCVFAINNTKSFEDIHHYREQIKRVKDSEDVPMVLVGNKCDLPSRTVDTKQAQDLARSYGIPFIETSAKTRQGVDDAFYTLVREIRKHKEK
Sequence of KRas G12D (P01116 1-169 isoform P01116-2 G12D): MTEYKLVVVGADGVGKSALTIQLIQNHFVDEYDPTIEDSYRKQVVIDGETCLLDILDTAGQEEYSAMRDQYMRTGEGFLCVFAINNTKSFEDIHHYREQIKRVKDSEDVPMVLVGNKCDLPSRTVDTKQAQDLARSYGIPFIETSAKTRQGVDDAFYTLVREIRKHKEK
Sequence of KRas G12V (P01116 1-169 isoform P01116-2 G12V): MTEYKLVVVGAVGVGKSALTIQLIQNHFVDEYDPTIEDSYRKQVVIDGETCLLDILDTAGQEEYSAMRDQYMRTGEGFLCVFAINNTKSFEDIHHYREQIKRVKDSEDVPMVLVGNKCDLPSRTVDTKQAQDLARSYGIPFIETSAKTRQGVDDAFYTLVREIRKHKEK
Sequence of KRas G13D (P01116 1-169 isoform P01116-2 G13D): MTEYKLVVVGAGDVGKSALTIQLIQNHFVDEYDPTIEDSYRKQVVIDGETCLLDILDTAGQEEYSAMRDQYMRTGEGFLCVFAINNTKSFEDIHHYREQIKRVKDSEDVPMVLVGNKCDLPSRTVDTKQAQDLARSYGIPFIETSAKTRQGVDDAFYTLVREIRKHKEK
Sequence of KRas G12A (P01116 1-169 isoform P01116-2 G12A): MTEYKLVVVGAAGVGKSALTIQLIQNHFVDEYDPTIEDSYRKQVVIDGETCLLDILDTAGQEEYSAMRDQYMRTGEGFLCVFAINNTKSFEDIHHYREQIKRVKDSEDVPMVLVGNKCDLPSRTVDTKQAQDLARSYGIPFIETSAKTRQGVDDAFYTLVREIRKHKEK
Sequence of KRas G12C (P01116 1-169 isoform P01116-2 G12C): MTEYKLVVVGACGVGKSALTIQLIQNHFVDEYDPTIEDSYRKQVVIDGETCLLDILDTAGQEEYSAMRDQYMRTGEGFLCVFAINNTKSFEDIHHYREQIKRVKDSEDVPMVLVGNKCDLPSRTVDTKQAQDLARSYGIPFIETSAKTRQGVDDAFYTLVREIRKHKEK

By IC50 is commonly meant the concentration that inhibits the measured activity by half. Turning to `CCc1cccc2cccc(N3CCc4c(nc(OCC5(CN(C)C)CC5)nc4NCc4c(C)nnn4CC)C3)c12` [Example 518, 2-((1-((dimethylamino)methyl)cyclopropyl)methoxy)-N-((1-ethyl-4-methyl-1H-1,2,3-triazol-5-yl)methyl)-7-(8-ethylnaphthalen-1-yl)-5,6,7,8-tetrahydropyrido[3,4-d]pyrimidin-4-amine], the IC50 in test [1] came out at 1930 nM; in test [2] it was 249 nM; in test [3], 190 nM; in test [4], 139 nM; in test [5], 1790 nM; in test [6], 175 nM. The IC50 in test [7] was 221 nM; in test [8], 161 nM.
For `CCc1cccc2cccc(N3CCc4c(nc(OCC5(CN(C)C)CC5)nc4N4Cc5nncn5C(C)C4)C3)c12` (stereo not drawn) [Example 519, 1-(1-(((7-(8-ethylnaphthalen-1-yl)-4-(5-methyl-5,6-dihydro-[1,2,4]triazolo[4,3-a]pyrazin-7(8H)-yl)-5,6,7,8-tetrahydropyrido[3,4-d]pyrimidin-2-yl)oxy)methyl)cyclopropyl)-N,N-dimethylmethanamine], the IC50 in test [1] was determined as 2000 nM; in test [2] it was 8140 nM; in test [3], 5920 nM; in test [4], 2850 nM; in test [5], 1560 nM; in test [6], 5580 nM. The IC50 was found to be 5230 nM in test [7] and 5480 nM in test [8].
As to `CCc1cccc2cccc(N3CCc4c(nc(OCC5(CN(C)C)CC5)nc4NCc4nc(C(O)C5CC5)n[nH]4)C3)c12` (stereo not drawn) [Example 520, cyclopropyl(5-(((2-((1-((dimethylamino)methyl)cyclopropyl)methoxy)-7-(8-ethylnaphthalen-1-yl)-5,6,7,8-tetrahydropyrido[3,4-d]pyrimidin-4-yl)amino)methyl)-1H-1,2,4-triazol-3-yl)methanol], the IC50 in test [1] is 2460 nM; in test [2] it was 5070 nM; in test [3], 5940 nM; in test [4] it was 2290 nM; in test [5] it was 3990 nM; in test [6] it was 4150 nM. Besides, the IC50 in test [7] came to 4610 nM; in test [8], 2900 nM.
Regarding `CCc1cccc2cccc(N3CCc4c(nc(OCC5(CN(C)C)CC5)nc4N4CCCC(Cn5cc(C(=O)NC)nn5)C4)C3)c12` (stereo not drawn) [Example 528, 1-((1-(2-((1-((dimethylamino)methyl)cyclopropyl)methoxy)-7-(8-ethylnaphthalen-1-yl)-5,6,7,8-tetrahydropyrido[3,4-d]pyrimidin-4-yl)piperidin-3-yl)methyl)-N-methyl-1H-1,2,3-triazole-4-carboxamide], the IC50 in test [1] came to 6290 nM; in test [2], 7930 nM; in test [3], 7520 nM; in test [4], 13500 nM; in test [5], 13600 nM; in test [6], 10500 nM. Further, the IC50 in test [7] turned out to be 8290 nM; in test [8], 11700 nM.
Take `CCc1cccc2cccc(N3CCc4c(nc(OCC5(CN(C)C)CC5)nc4N(C)Cc4nnc5n4CCNC5=O)C3)c12` [Example 529, 3-(((2-((1-((dimethylamino)methyl)cyclopropyl)methoxy)-7-(8-ethylnaphthalen-1-yl)-5,6,7,8-tetrahydropyrido[3,4-d]pyrimidin-4-yl)(methyl)amino)methyl)-6,7-dihydro-[1,2,4]triazolo[4,3-a]pyrazin-8(5H)-one]: the IC50 in test [1] stood at 6570 nM; in test [2] it was 2110 nM; in test [3], 1410 nM; in test [4] it was 1200 nM; in test [5], 3000 nM; in test [6] it was 1380 nM. Moreover, the IC50 was 2000 nM in test [7] and 1060 nM in test [8].
With `CCc1cccc2cccc(N3CCc4c(nc(OCC5(CN(C)C)CC5)nc4NCc4nc(-c5ccncc5)no4)C3)c12` [Example 530, 2-((1-((dimethylamino)methyl)cyclopropyl)methoxy)-7-(8-ethylnaphthalen-1-yl)-N-((3-(pyridin-4-yl)-1,2,4-oxadiazol-5-yl)methyl)-5,6,7,8-tetrahydropyrido[3,4-d]pyrimidin-4-amine], the IC50 in test [1] came out at 6680 nM; in test [2], 3470 nM; in test [3], 3080 nM; in test [4], 1030 nM; in test [5] it was 7530 nM; in test [6], 1920 nM. In addition, the IC50 was 2660 nM in test [7] and 1070 nM in test [8].
As to `CCc1cccc2cccc(N3CCc4c(nc(OCC5(CN(C)C)CC5)nc4NCc4nnc(C5CCCO5)[nH]4)C3)c12` (stereo not drawn) [Example 531, 2-((1-((dimethylamino)methyl)cyclopropyl)methoxy)-7-(8-ethylnaphthalen-1-yl)-N-((5-(tetrahydrofuran-2-yl)-4H-1,2,4-triazol-3-yl)methyl)-5,6,7,8-tetrahydropyrido[3,4-d]pyrimidin-4-amine], the IC50 worked out at 6830 nM in test [1]; 24900 nM in test [2]; 22400 nM in test [3]; 9540 nM in test [4]; 5700 nM in test [5]; 17200 nM in test [6]. In addition, the IC50 came to 17000 nM in test [7] and 19900 nM in test [8].
On to `CCc1cccc2cccc(N3CCc4c(nc(OCC5(CN(C)C)CC5)nc4N4CCOC(c5n[nH]c(CO)n5)C4)C3)c12` (stereo not drawn) [Example 532, (3-(4-(2-((1-((dimethylamino)methyl)cyclopropyl)methoxy)-7-(8-ethylnaphthalen-1-yl)-5,6,7,8-tetrahydropyrido[3,4-d]pyrimidin-4-yl)morpholin-2-yl)-1H-1,2,4-triazol-5-yl)methanol], for which the IC50 was 7260 nM in test [1]; 1150 nM in test [2]; 901 nM in test [3]; 370 nM in test [4]; 756 nM in test [5]; 649 nM in test [6]. Further, the IC50 in test [7] is 910 nM; in test [8], 700 nM.
Turning to `CCc1cccc2cccc(N3CCc4c(nc(OCC5(CN(C)C)CC5)nc4NCc4nnnn4C4CCC4)C3)c12` [Example 533, N-((1-cyclobutyl-1H-tetrazol-5-yl)methyl)-2-((1-((dimethylamino)methyl)cyclopropyl)methoxy)-7-(8-ethylnaphthalen-1-yl)-5,6,7,8-tetrahydropyrido[3,4-d]pyrimidin-4-amine], the IC50 in test [1] was found to be 7360 nM; in test [2], 12300 nM; in test [3], 9980 nM; in test [4], 3860 nM; in test [5] it was 2680 nM; in test [6] it was 5970 nM. The values for the IC50 in test [7] and in test [8] were 7620 nM and 4920 nM, respectively.
Consider `CCc1cccc2cccc(N3CCc4c(nc(OCC5(CN(C)C)CC5)nc4N4Cc5cn[nH]c5CC(C)C4)C3)c12` (stereo not drawn) [Example 534, 1-(1-(((7-(8-ethylnaphthalen-1-yl)-4-(7-methyl-4,6,7,8-tetrahydropyrazolo[4,3-c]azepin-5(1H)-yl)-5,6,7,8-tetrahydropyrido[3,4-d]pyrimidin-2-yl)oxy)methyl)cyclopropyl)-N,N-dimethylmethanamine], for which the IC50 in test [1] was determined as 7370 nM; in test [2], 18200 nM; in test [3], 14600 nM; in test [4], 4900 nM; in test [5], 3540 nM; in test [6], 9380 nM. For the same molecule, the IC50 amounted to 12100 nM in test [7] and 9330 nM in test [8].
For `CCc1cccc2cccc(N3CCc4c(nc(OCC5(CN(C)C)CC5)nc4N4CCCC(n5ccc(C)n5)C4)C3)c12` (stereo not drawn) [Example 535, 1-(1-(((7-(8-ethylnaphthalen-1-yl)-4-(3-(3-methyl-1H-pyrazol-1-yl)piperidin-1-yl)-5,6,7,8-tetrahydropyrido[3,4-d]pyrimidin-2-yl)oxy)methyl)cyclopropyl)-N,N-dimethylmethanamine], the IC50 is 7570 nM in test [1]; 6190 nM in test [2]; 6460 nM in test [3]; 1830 nM in test [4]; 4710 nM in test [5]; 2980 nM in test [6]. Moreover, the IC50 in test [7] was 5320 nM; in test [8], 5060 nM.
In the case of `CCc1cccc2cccc(N3CCc4c(nc(OCC5(CN(C)C)CC5)nc4N4CCN(C(=O)c5c[nH]c(=O)[nH]5)CC4)C3)c12` [Example 536, 4-(4-(2-((1-((dimethylamino)methyl)cyclopropyl)methoxy)-7-(8-ethylnaphthalen-1-yl)-5,6,7,8-tetrahydropyrido[3,4-d]pyrimidin-4-yl)piperazine-1-carbonyl)-1,3-dihydro-2H-imidazol-2-one], the IC50 stood at 7950 nM in test [1]; 3080 nM in test [2]; 2170 nM in test [3]; 4650 nM in test [4]; 3020 nM in test [5]; 4690 nM in test [6]. Moreover, the IC50 in test [7] stood at 3050 nM; in test [8], 7720 nM.
